In patent publication US12583848B2, “Isoxazole-3-carboxamide derivatives and their use for treatment of diseases caused by virus infection” (Collaborations Pharmaceuticals, Inc., priority 2019, dated 2026):
Where two headings read alike, the source gives them in different places.

Test system: CYP3A4
Conditions: for CYP3A4 induction, % of control: control = rifampicin; for CYP3A4 induction (fold): cryopreserved hepatocytes, midazolam substrate

SMILES: Cc1cc(-c2noc(C(F)(F)F)n2)ccc1OCCCc1cc(C(=O)N(C)C)no1 [Compound 8, N,N-dimethyl-5-(3-{2-methyl-4-[5-(trifluoromethyl)-1,2,4-oxadiazol-3-yl]phenoxy}propyl)isoxazole-3-carboxamide]
- CYP3A4 induction, % of control (1 μM): 3 % of control
- CYP3A4 induction (fold) (1 μM): 1.2 ×
- CYP3A4 induction, % of control (10 μM): 7 % of control
- CYP3A4 induction (fold) (10 μM): 1.4 ×
